Entries after “also recorded” stand apart in the source; their conditions may differ. Like-named read-outs stand apart in the source and are kept apart here.
Legend:
[1] = target: T1, MAO-A (Homo sapiens, UniProt P21397); test: In vitro fluorometric MAO-A inhibition assay (Ampliflu Red, tyramine); format: biochemical; conditions: for inhibition at 10 µM / inhibition at 1 µM / inhibition at 0.1 µM / inhibition at 0.01 µM / inhibition at 0.001 µM: read-out: MAO-A % Inhibition; for IC50: mean ± SD, read-out: IC50 against MAO-A
T1 construct: purchased Sigma-Aldrich (Steinheim, Germany)
T1 sequence (P21397 1-527): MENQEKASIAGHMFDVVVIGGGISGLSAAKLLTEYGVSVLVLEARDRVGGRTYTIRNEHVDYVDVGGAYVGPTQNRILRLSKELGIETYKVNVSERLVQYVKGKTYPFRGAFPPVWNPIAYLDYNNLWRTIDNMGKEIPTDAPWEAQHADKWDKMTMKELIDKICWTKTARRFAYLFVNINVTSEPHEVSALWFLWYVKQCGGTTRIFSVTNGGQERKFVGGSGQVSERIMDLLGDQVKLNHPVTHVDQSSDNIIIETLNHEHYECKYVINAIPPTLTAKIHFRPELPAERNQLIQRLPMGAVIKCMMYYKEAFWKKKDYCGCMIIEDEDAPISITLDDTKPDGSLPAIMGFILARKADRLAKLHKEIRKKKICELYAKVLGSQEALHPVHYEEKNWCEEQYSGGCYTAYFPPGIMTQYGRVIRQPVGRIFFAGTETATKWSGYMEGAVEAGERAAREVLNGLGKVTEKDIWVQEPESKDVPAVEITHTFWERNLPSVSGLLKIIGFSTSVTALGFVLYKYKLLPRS

[2] = target: T2, recombinant MAO-B (Homo sapiens, UniProt P27338); test: In vitro fluorometric MAO-B inhibition assay (Ampliflu Red, tyramine); format: biochemical
T2 construct: purchased Sigma-Aldrich (Steinheim, Germany)
T2 sequence (P27338 1-520): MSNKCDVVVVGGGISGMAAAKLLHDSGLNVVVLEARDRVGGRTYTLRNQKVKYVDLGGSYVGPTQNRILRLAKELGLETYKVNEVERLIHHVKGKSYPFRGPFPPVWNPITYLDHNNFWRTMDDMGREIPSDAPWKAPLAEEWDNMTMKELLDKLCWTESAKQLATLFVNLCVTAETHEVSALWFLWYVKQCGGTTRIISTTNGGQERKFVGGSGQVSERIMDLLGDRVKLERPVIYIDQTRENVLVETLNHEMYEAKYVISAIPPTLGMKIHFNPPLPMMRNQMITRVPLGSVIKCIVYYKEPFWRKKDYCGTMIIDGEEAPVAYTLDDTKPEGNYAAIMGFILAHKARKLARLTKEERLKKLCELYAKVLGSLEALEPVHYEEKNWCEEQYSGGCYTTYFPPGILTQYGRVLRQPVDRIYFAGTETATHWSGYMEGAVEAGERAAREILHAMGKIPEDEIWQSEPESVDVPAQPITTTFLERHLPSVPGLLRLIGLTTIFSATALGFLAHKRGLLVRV

[3] = Cytotoxicity MTT assay; format: cell-based; conditions: mouse, NIH/3T3 mouse embryonic fibroblast cells, tested 1 mM to 0.000316 mM, read-out: IC50 NIH/3T3 Cell Line
Description: The NIH/3T3 mouse embryonic fibroblast cell line (ATCC® CRL-1658 ™, London, UK) was used for cytotoxicity assays. The incubation period of NIH/3T3 cells was based on the supplier’s recommendation. NIH/3T3 cells were seeded at 1 × 10^4 cells into each well of 96-well plates. MTT assay was carried out in accordance with the standards previously described manner.

[4] = target: T1, MAO-A; test: Enzyme kinetic studies (Lineweaver-Burk and secondary plot); format: biochemical
Description: The same materials were used in the MAO inhibition assay. […] All processes were evaluated in quadruplicate. The results were analyzed by means of Microsoft Office Excel 2013 as Lineweaver-Burk diagrams. […] of the Lineweaver-Burk plots were replotted versus the inhibitor concentration, and the Ki values were determined from the x-axis intercept as Ki.
The MAO-A inhibition mechanism was defined by conducting enzyme kinetics experiments utilizing a protocol close to that of the MAO inhibition assay. […] To estimate the type of inhibition of this compound, linear Lineweaver-Burk graphs were used. The velocity curves of the substrates were reported in the absence and presence of compound 3e. In each case, the initial velocity measurements were collected at various concentrations of substrates (tyramine) varying from 20 μM to 0.625 μM.
According to the Lineweaver-Burk plots, the type of inhibition consists of two general classes: reversible and irreversible. Mixed-type, uncompetitive, competitive and noncompetitive inhibition types are included in the reversible inhibition. […] Competitive inhibition is seen if the lines intersect on the y-axis, and the slopes and x-intercepts are different. On the contrary, non-competitive inhibition has the opposite result: the plotted lines have the same x-intercept but there are diverse slopes and y-intercepts.

| Structure (SMILES) | melting point [°C] | inhibition at 1000 µM ([1]; 10^−3 M) [%] | inhibition at 100 µM ([1]; 10^−4 M) [%] | inhibition at 1000 µM ([2]; 10^−3 M) [%] | inhibition at 100 µM ([2]; 10^−4 M) [%] | further results |
| --- | --- | --- | --- | --- | --- | --- |
| Cc1ccc(-c2csc(NN=Cc3ccc(N4CCN(C)CC4)cc3)n2)c(C)c1 [Compound 3j, 2-{2-[4-(4-Methylpiperazin-1-yl)benzylidene]hydrazinyl}-4-(2,4-dimethylphenyl)thiazole] | 238 to 240 | 72.3 ± 1.03 | 38.1 ± 0.798 | 28.1 ± 0.901 | 20 ± 0.792 |  |
| CN1CCN(c2ccc(C=NNc3nc(-c4ccc(-c5ccccc5)cc4)cs3)cc2)CC1 [Compound 3i, 2-{2-[4-(4-Methylpiperazin-1-yl)benzylidene]hydrazinyl}-4-([1,1’-biphenyl]-4-yl)thiazole] | 275 to 276 | 66.2 ± 0.972 | 41.5 ± 0.87 | 30.6 ± 0.836 | 21.5 ± 0.809 |  |
| CN1CCN(c2ccc(C=NNc3nc(-c4ccc(F)cc4)cs3)cc2)CC1 [Compound 3f, 2-{2-[4-(4-Methylpiperazin-1-yl)benzylidene]hydrazinyl}-4-(4-fluorophenyl)thiazole] | 247 to 249 | 75.9 ± 1.24 | 40.7 ± 0.98 | 30.7 ± 0.912 | 24.7 ± 0.854 |  |
| CN1CCN(c2ccc(C=NNc3nc(-c4ccc(C#N)cc4)cs3)cc2)CC1 [Compound 3d, 2-{2-[4-(4-Methylpiperazin-1-yl)benzylidene]hydrazinyl}-4-(4-cyanophenyl)thiazole] | 234 to 235 | 90.2 ± 2.04 | 84.4 ± 1.81 | 36.6 ± 0.903 | 26 ± 0.836 | inhibition at 10 µM ([1]; 10^−5 M): 81.1 ± 1.94%; inhibition at 1 µM ([1]; 10^−6 M): 79 ± 1.25%; inhibition at 0.1 µM ([1]; 10^−7 M): 49.6 ± 0.811%; inhibition at 0.01 µM ([1]; 10^−8 M): 30.6 ± 0.699%; inhibition at 0.001 µM ([1]; 10^−9 M): 18.1 ± 0.593%; IC50 [1]: 0.117 ± 0.004 µM |
| COc1ccc(-c2csc(NN=Cc3ccc(N4CCN(C)CC4)cc3)n2)cc1 [Compound 3c, 2-{2-[4-(4-Methylpiperazin-1-yl)benzylidene]hydrazinyl}-4-(4-methoxyphenyl)thiazole] | 226 to 228 | 92.1 ± 2.22 | 87.7 ± 1.87 | 30.3 ± 0.812 | 21.5 ± 0.879 | inhibition at 10 µM ([1]; 10^−5 M): 75.4 ± 1.43%; inhibition at 1 µM ([1]; 10^−6 M): 71 ± 1.09%; inhibition at 0.1 µM ([1]; 10^−7 M): 48.3 ± 0.869%; inhibition at 0.01 µM ([1]; 10^−8 M): 30.9 ± 0.711%; inhibition at 0.001 µM ([1]; 10^−9 M): 21.8 ± 0.638%; IC50 [1]: 0.188 ± 0.008 µM |
| CN1CCN(c2ccc(C=NNc3nc(-c4ccc(Cl)cc4Cl)cs3)cc2)CC1 [Compound 3l, 2-{2-[4-(4-Methylpiperazin-1-yl)benzylidene]hydrazinyl}-4-(2,4-chlorophenyl)thiazole] |  |  |  |  |  | MAO-A % Inhibition ([1]; 10^−3 M): 73.521 ± 1.180%; MAO-A % Inhibition ([1]; 10^−4 M): 40.578 ± 0.914%; MAO-B % Inhibition ([2]; 10^−3 M): 33.667 ± 0.991%; MAO-B % Inhibition ([2]; 10^−4 M): 21.373 ± 0.769% |
| Cc1ccc(-c2csc(NN=Cc3ccc(N4CCN(C)CC4)cc3)n2)cc1 [Compound 3b, 2-{2-[4-(4-Methylpiperazin-1-yl)benzylidene]hydrazinyl}-4-(4-methylphenyl)thiazole] | 252 to 254 | 71 ± 1.11 | 31.5 ± 0.732 | 34.6 ± 0.886 | 27.6 ± 0.649 |  |
| C#CCN(C)CCCOc1ccc(Cl)cc1Cl [Clorgiline, clorgiline, reference compound] |  |  |  |  |  | inhibition at 0.001 µM [1]: 22.5 ± 0.736%; inhibition at 0.01 µM [1]: 34.2 ± 0.841%; inhibition at 0.1 µM [1]: 65.2 ± 0.997%; inhibition at 1 µM [1]: 78.5 ± 1.02%; inhibition at 10 µM [1]: 87.6 ± 1.46% |
| CN1CCN(c2ccc(C=NNc3nc(-c4ccc(Br)cc4)cs3)cc2)CC1 [Compound 3h, 2-{2-[4-(4-Methylpiperazin-1-yl)benzylidene]hydrazinyl}-4-(4-bromophenyl)thiazole] | 253 to 255 | 70.8 ± 1.32 | 37.9 ± 0.796 | 34.4 ± 0.824 | 22.1 ± 0.796 |  |
| CN1CCN(c2ccc(C=NNc3nc(-c4ccc(F)cc4F)cs3)cc2)CC1 [Compound 3k, 2-{2-[4-(4-Methylpiperazin-1-yl)benzylidene]hydrazinyl}-4-(2,4-difluorophenyl)thiazole] | 250 to 251 | 80 ± 1.3 | 35.1 ± 0.833 | 29.6 ± 0.782 | 23.2 ± 0.876 |  |
| CN1CCN(c2ccc(C=NNc3nc(-c4ccc(Cl)cc4)cs3)cc2)CC1 [Compound 3g, 2-{2-[4-(4-Methylpiperazin-1-yl)benzylidene]hydrazinyl}-4-(4-chlorophenyl)thiazole] | 249 to 250 | 73.7 ± 1.11 | 33.5 ± 0.833 | 31.2 ± 0.789 | 24 ± 0.623 |  |
| CN1CCN(c2ccc(C=NNc3nc(-c4ccc([N+](=O)[O-])cc4)cs3)cc2)CC1 [Compound 3e, 2-{2-[4-(4-Methylpiperazin-1-yl)benzylidene]hydrazinyl}-4-(4-nitrophenyl)thiazole] |  | 95.3 ± 1.9 | 90.8 ± 1.73 | 39.1 ± 0.81 | 28.2 ± 0.791 | inhibition at 10 µM ([1]; 10^−5 M): 85 ± 1.03%; inhibition at 1 µM ([1]; 10^−6 M): 82.4 ± 1.39%; inhibition at 0.1 µM ([1]; 10^−7 M): 63.9 ± 0.893%; inhibition at 0.01 µM ([1]; 10^−8 M): 42.6 ± 0.835%; inhibition at 0.001 µM ([1]; 10^−9 M): 23 ± 0.715%; IC50 [1]: 0.057 ± 0.002 µM; IC50 [3]: > 1000 µM; inhibition type ([4]; Lineweaver-Burk plots): competitive and reversible; also recorded: reversible and competitive; Ki ([4]; secondary plot, substrate tyramine, read-out: Ki (steady-state inhibition constant)): 0.011 µM |
| CN1CCN(c2ccc(C=NNc3nc(-c4ccccc4)cs3)cc2)CC1 [Compound 3a, 2-{2-[4-(4-Methylpiperazin-1-yl)benzylidene]hydrazinyl}-4-phenylthiazole] | 254 to 255 | 68.1 ± 1.03 | 34.3 ± 0.851 | 32.3 ± 0.985 | 25 ± 0.721 |  |

Source: article PMC7571065, “Design, Synthesis, In Vitro and In Silico Studies of New Thiazolylhydrazine-Piperazine Derivatives as Selective MAO-A Inhibitors” (Molecules, 2020)
